Test results: patent publication US20230405084A1, “USE OF PHOSPHATIDYLSERINE IN PREPARATION OF DRUG FOR TREATING INFLAMMATORY BOWEL DISEASE” (JIANGSU TARGET BIOMEDICAL RESEARCH INSTITUTE CO., LTD., priority 2020, published 2023)
Positions count from the first letter of the chain named.

What was measured:
[1] = biological target: T1, Annexin A5-EGFP (wild-type Annexin A5 fused to EGFP) (Homo sapiens, UniProt P08758); experiment: MST analysis of protein binding ability to PS (Annexin A5-EGFP); settings: fitted binding curve (Fnorm), in the presence of Ca^2+, protein fixed, gradient dilution of PS, 5 min at room temperature
T1 construct: E. coli BL21(DE3), pET-28a/kanamycin vector
T1 sequence (P08758 1-320): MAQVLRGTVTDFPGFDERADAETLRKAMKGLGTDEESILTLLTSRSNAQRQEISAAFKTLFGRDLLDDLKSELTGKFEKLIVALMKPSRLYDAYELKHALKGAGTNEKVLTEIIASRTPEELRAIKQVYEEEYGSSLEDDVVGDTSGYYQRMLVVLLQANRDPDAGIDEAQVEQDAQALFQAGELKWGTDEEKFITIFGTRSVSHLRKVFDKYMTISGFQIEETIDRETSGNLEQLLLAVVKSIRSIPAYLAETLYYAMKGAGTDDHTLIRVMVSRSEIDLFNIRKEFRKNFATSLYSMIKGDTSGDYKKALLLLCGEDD
Method: (§1) 3.2.9 MST Analysis of Protein Binding Ability to PS
(§2) MST is based on the phenomenon of thermophoresis of biomolecules in capillaries, resulting in changes in the properties of biomolecules, which are manifested in changes in the fluorescence distribution of the reaction system, and the fluorescence changes reflect the affinity of biomolecular interactions.
(§3) The MST experiment was conducted as follows.
(§4) (1) Non-fluorescent ligand preparation: 20 μL of the highest concentration unmarked PS molecules was prepared. 16 PCR tubes were labeled. 10 μL of buffer was added to each of 15 PCR tubes. 10 μL from PCR tube #1 was transferred to PCR tube #2 and mixed thoroughly. 10 μL from PCR tube #2 was transferred to PCR tube #3 and mixed thoroughly. Repeat this step in all sample tubes. Finally, 10 μL from PCR tube #16 was taken out and discard.
(§5) (2) Fluorescent ligand preparation: The fluorescent ligand was diluted to 2 times the concentration to be tested, and 10 μL was added respectively to PCR tubes 1-16 in sequence using a clean pipette tip, starting from the low concentration PCR tube to the highest concentration PCR tube.
(§6) (3) Incubation: The reaction solutions of the above tubes were mixed thoroughly and incubated for 5 min at room temperature away from light. […]

[2] = biological target: T2, Annexin A5m-EGFP (Annexin A5 variant Annexin A5m, R25A/K29S/R63S/D68A/E72Q/D144N/E228A/D303N, fused to EGFP) (Homo sapiens, UniProt P08758, D144N/D303N/D68A/E228A/E72Q/K29S/R25A/R63S); experiment: MST analysis of protein binding ability to PS (Annexin A5m-EGFP); settings: in the presence of Ca^2+, failed to be fitted into a binding curve, protein fixed, gradient dilution of PS, 5 min at room temperature
T2 construct: pET-28a, E. coli BL21(DE3)
T2 sequence (P08758 1-320 R25A/K29S/R63S/D68A/E72Q/D144N/E228A/D303N): T1 sequence (P08758 1-320) with R25A, K29S, R63S, D68A, E72Q, D144N, E228A, D303N
Method: as §1, §2, §3, §4, §5, §6

phosphatidylserine [PS]
Kd [1]: 13.8 µM
Kd value [2]: no Kd value
